Data taken from paper PMC6328172, “5-HT2 receptor binding, functional activity and selectivity in N-benzyltryptamines” (PLoS ONE, 2019).
Read-outs that look alike come from different tables or passages of the source.

How the values were obtained:
[1] = biological target: T1, human 5-HT2C receptor (Homo sapiens, UniProt P28335); assay: Competition binding to the human 5-HT2C receptor ([3H]mesulergine, HeLa-5-HT2C membranes); settings: for Selectivity 5-HT2C/2A (binding, in parentheses): from Ki values, Table 1; for Ki: human receptor, [3H]mesulergine displacement, no unit in the table, nM, read-out: 5-HT2C Ki (in parentheses) (converted)
T1 construct: expressed in transfected cells; host or cells: HeLa (HeLa-5-HT2C cell line)
T1 sequence (P28335 33-458): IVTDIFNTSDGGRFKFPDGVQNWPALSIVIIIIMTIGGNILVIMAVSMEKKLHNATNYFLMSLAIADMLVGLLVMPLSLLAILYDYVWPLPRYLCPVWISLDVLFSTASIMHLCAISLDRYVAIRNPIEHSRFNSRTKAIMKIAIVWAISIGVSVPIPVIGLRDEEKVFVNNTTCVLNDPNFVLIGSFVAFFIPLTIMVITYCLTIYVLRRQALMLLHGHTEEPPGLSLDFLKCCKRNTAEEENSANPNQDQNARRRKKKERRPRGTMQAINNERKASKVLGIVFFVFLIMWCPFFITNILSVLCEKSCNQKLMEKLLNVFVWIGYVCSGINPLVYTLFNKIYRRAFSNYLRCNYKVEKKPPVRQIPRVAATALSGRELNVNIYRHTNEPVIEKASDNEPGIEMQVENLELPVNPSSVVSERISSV

[2] = biological target: T2, human 5-HT2A receptor (Homo sapiens, UniProt P28223); assay: Ca2+ mobilization in CHO h5-HT2A cells; assay type: cell-based; settings: for EC50: Ca2+ mobilization; for Selectivity 5-HT2A/2C (functional): from EC50 values, Table 2; for Emax: relative efficacy, % of response to 5-HT
T2 construct: expressed in transfected cells; host or cells: CHO (CHO-5-HT2A cell line)
T2 sequence (P28223 whole entry): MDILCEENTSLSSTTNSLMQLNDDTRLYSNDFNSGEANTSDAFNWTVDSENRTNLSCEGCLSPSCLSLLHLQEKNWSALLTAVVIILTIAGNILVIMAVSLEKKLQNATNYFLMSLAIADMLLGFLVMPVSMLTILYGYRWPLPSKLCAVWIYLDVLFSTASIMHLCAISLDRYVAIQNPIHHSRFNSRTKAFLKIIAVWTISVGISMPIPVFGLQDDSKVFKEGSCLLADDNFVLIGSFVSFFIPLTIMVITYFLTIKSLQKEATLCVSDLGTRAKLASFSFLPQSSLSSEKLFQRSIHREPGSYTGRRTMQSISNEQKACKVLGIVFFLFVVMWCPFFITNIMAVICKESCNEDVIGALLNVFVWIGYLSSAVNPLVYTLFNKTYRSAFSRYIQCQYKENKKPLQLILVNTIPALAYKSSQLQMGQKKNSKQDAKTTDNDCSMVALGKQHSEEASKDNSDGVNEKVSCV

[3] = biological target: T2, human 5-HT2A receptor; assay: Competition binding to the human 5-HT2A receptor ([3H]ketanserin, CHO-5-HT2A membranes); settings: for Selectivity 5-HT2A/2C (binding): from Ki values, Table 1; for Ki: human receptor, [3H]ketanserin displacement
[4] = biological target: T1, human 5-HT2C receptor; assay: Ca2+ mobilization in HeLa h5-HT2C cells; assay type: cell-based; settings: for EC50: Ca2+ mobilization, no unit in the table, nM, read-out: 5-HT2C EC50 (in parentheses) (converted); for Emax: HeLa, read-out: 5-HT2C % Emax; for Selectivity 5-HT2C/2A (functional, in parentheses): from EC50 values, Table 2
[5] = biological target: human 5-HT2B receptor (Homo sapiens, UniProt P41595); assay: Competition binding to the human 5-HT2B receptor ([3H]LSD, CHO-5-HT2B membranes)
Chain of human 5-HT2B receptor (P41595 whole entry): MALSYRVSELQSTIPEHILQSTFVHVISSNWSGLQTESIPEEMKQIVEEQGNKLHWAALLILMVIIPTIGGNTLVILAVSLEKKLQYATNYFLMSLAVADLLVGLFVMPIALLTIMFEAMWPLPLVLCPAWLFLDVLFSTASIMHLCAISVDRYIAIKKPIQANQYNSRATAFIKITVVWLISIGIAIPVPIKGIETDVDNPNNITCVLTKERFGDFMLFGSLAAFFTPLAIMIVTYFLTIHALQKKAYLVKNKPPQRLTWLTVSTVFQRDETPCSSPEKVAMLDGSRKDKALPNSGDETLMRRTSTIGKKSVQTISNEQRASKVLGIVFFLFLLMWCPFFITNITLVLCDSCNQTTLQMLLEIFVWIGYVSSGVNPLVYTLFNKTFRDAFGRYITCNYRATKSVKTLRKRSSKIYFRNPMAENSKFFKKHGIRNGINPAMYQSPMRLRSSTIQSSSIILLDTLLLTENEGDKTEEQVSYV

[6] = no unit in the table, nM, read-out: 5-HT2A EC50 (in parentheses) (converted)
[7] = no unit in the table, nM, read-out: 5-HT2A Ki (in parentheses) (converted)
[8] = pEC50 ± SEM, read-out: 5-HT2A pEC50 (converted)

Compound | Selectivity 5-HT2C/2A (binding, in parentheses) [1] | Ki [1] [nM] | EC50 [2, 6] [nM] | Selectivity 5-HT2A/2C (functional) [2] | Emax [2] [%] | Selectivity 5-HT2A/2C (binding) [3] | Ki [3, 7] [nM] | Ki ([3]; read-out: 5-HT2A pKi ± S.E.M. (converted)) [nM] | EC50 [4] [nM] | Emax [4] [%] | Selectivity 5-HT2C/2A (functional, in parentheses) [4] | Ki [5] [nM] | EC50 [2, 8] [nM]
Oc1ccc(F)cc1CNCCc1c[nH]c2ccccc12 [Compound 24, N-(5-Fluoro-2-hydroxybenzyl)-[2-(1H-indol-3-yl)ethyl]amine] | 7.15 | 105 | 75.9 | 0.35 | 71.6 ± 1.95 | 0.14 | 759 | 794 | 26.3 | 105 ± 2.19 | 2.88 | 77.6 | –
COc1ccc(F)cc1CNCCc1c[nH]c2ccccc12 [Compound 25, N-(5-Fluoro-2-methoxybenzyl)-[2-(1H-indol-3-yl)ethyl]amine] | 2.40 | 151 | 60.3 | 0.87 | 58 ± 1.95 | 0.42 | 363 | – | 52.5 | 110 ± 2.19 | 1.15 | 95.5 | –
COc1ccc(Br)cc1CNCCc1c[nH]c2ccccc12 [Compound 27, N-(5-Bromo-2-methoxybenzyl)-[2-(1H-indol-3-yl)ethyl]amine] | 8.22 | 135 | 17800 | 0.015 | 69 ± 3.51 | 0.12 | 1120 | – | 263 | 111 ± 4.63 | 67.6 | 91.2 | 17800
COc1ccc(Cl)cc1CNCCc1c[nH]c2ccccc12 [Compound 28, N-(5-Chloro-2-methoxybenzyl)-[2-(1H-indol-3-yl)ethyl]amine] | 0.74 | 1320 | 8910 | 0.027 | 69.2 ± 2.67 | 1.35 | 977 | – | 240 | 110 ± 3.35 | 37.2 | 794 | 8910
COc1ccc(OC)c(CNCCc2c[nH]c3ccccc23)c1 [Compound 29, N-(2,5-Dimethoxybenzyl)-[2-(1H-indol-3-yl)ethyl]amine] | 3.85 | 87.1 | 3470 | 0.038 | 39 ± 0.67 | 0.26 | 331 | – | 132 | 118 ± 4.45 | 26.3 | 57.5 | –
Oc1cc(Br)ccc1CNCCc1c[nH]c2ccccc12 [Compound 31, N-(4-Bromo-2-hydroxybenzyl)-[2-(1H-indol-3-yl)ethyl]amine] | 2.63 | 603 | 24500 | 0.033 | 62.5 ± 10.8 | 0.38 | 1550 | – | 813 | 74.8 ± 2.6 | 30.2 | 110 | –
Oc1cccc(Br)c1CNCCc1c[nH]c2ccccc12 [Compound 33, N-(6-Bromo-2-hydroxybenzyl)-[2-(1H-indol-3-yl)ethyl]amine] | 15 | 112 | 5890 | 0.13 | 34.4 ± 1.37 | 0.067 | 1660 | – | 794 | 104 ± 2.91 | 7.41 | 69.2 | –
Oc1cccc(F)c1CNCCc1c[nH]c2ccccc12 [Compound 34, N-(6-Fluoro-2-hydroxybenzyl)-[2-(1H-indol-3-yl)ethyl]amine] | – | 155 | 39.8 | 0.47 | 49.3 ± 3.23 | – | 229 | – | 18.6 | 91.7 ± 6.6 | 2.13 | 115 | –
COc1ccc(CNCCc2c[nH]c3ccccc23)cc1OC [Compound 36, N-(3,4-Dimethoxybenzyl)-[2-(1H-indol-3-yl)ethyl]amine] | 1.09 | 1200 | 2240 | 0.026 | 50.5 ± 8.27 | 0.92 | 1290 | – | 57.5 | 100 ± 2.85 | 38.9 | 288 | –
COc1ccc2[nH]cc(CCNCc3ccccc3)c2c1 [Compound 37, N-Benzyl-[2-(5-methoxy-1H-indol-3-yl)ethyl]amine] | 0.34 | 95.5 | 20.4 | 0.71 | 63.2 ± 1.44 | 2.93 | 33.1 | – | 14.4 | 113 ± 3.47 | 1.41 | 16.6 | –
COc1ccc2[nH]cc(CCNCc3ccccc3Cl)c2c1 [Compound 39, N-(2-Chlorobenzyl)-[2-(5-methoxy-1H-indol-3-yl)ethyl]amine] | 0.18 | 74.1 | 12 | 6.76 | 47.7 ± 1.57 | 5.51 | 13.5 | – | 81.3 | 106 ± 4.32 | 0.15 | 37.1 | –
COc1ccc2[nH]cc(CCNCc3ccccc3Br)c2c1 [Compound 40, N-(2-Bromobenzyl)-[2-(5-methoxy-1H-indol-3-yl)ethyl]amine] | 0.18 | 70.8 | 29.5 | 0.93 | 44.8 ± 0.99 | 5.66 | 12.3 | – | 27.5 | 105 ± 4.32 | 1.07 | 28.8 | –
COc1ccc2[nH]cc(CCNCc3ccc(Br)cc3)c2c1 [Compound 41, N-(4-Bromobenzyl)-[2-(5-methoxy-1H-indol-3-yl)ethyl]amine] | 1.02 | 380 | 1860 | 0.071 | 60.5 ± 2.41 | 0.98 | 389 | – | 132 | 93.5 ± 3.05 | 14.1 | 155 | –
